Calls of active or inactive are those of the source. The rule behind the calls is not given here.
Tested on: rodent lifetime carcinogenesis bioassay, tumor incidence TD50
Assay: chronic cancer bioassays in animals – CPDB, compiled studies (AID 1745844)

CO[C@H]1[C@@H](O)[C@@H](CO)OC(OC2C3CO[C@H]2[C@H](O)C(C)O3)[C@@H]1O (some centres not stated)
carcinogen call (mouse, strain B6C3F1, females, in feed, site: any site (literature study), lesion: several types, types named in the paper, dosed 103 weeks, study length 105 weeks): negative (inactive)
TD50 (mouse, strain B6C3F1, males, in feed, site: any site (literature study), lesion: several types, types named in the paper, dosed 103 weeks, study length 105 weeks): 54900 mg/kg/day
TD50 (mouse, strain B6C3F1, males, in feed, site: liver, lesion: hepatocellular adenoma + hepatocellular carcinoma + neoplastic nodule, dosed 103 weeks, study length 105 weeks): 33100 mg/kg/day
TD50 (mouse, strain B6C3F1, males, in feed, site: liver, lesion: hepatocellular adenoma, dosed 103 weeks, study length 105 weeks): 18800 mg/kg/day (inactive)
TD50 (mouse, strain B6C3F1, males, in feed, site: lung, lesion: alveolar/bronchiolar adenoma + alveolar/bronchiolar carcinoma, dosed 103 weeks, study length 105 weeks): 102000 mg/kg/day
TD50 (rat, strain Fischer 344, females, in feed, site: adrenal gland, lesion: cortical adenoma, dosed 103 weeks, study length 105 weeks): 25800 mg/kg/day (inactive)
TD50 (rat, strain Fischer 344, males, in feed, site: any site (literature study), lesion: several types, types named in the paper, dosed 103 weeks, study length 105 weeks): 39300 mg/kg/day (inactive)
TD50 (rat, strain Fischer 344, males, in feed, site: liver, lesion: hepatocellular adenoma + hepatocellular carcinoma + neoplastic nodule, dosed 103 weeks, study length 105 weeks): 25900 mg/kg/day

Oc1cc2c(cc1O)[C@@H]1c3ccc(O)c(O)c3OC[C@]1(O)C2
TD50 (rat, strain Wistar, both sexes, in feed, site: abdomen, lesion: malignant lymphoma, dosed 78 weeks, study length 78 weeks): 2410 mg/kg/day
TD50 (rat, strain Wistar, both sexes, in feed, site: forehead, lesion: malignant lymphoma, dosed 78 weeks, study length 78 weeks): 2410 mg/kg/day
TD50 (rat, strain Wistar, both sexes, in feed, site: several sites, sites named in the paper, lesion: malignant lymphoma, dosed 78 weeks, study length 78 weeks): 1000 mg/kg/day

Cc1ccc(C)c(N)c1
TD50 (mouse, strain CD-1 HaM/ICR, females, in feed, site: any site (literature study), lesion: several types, types named in the paper, dosed 68 weeks, study length 94 weeks): 475 mg/kg/day
TD50 (mouse, strain CD-1 HaM/ICR, females, in feed, site: liver, lesion: hepatoma, dosed 68 weeks, study length 94 weeks): 552 mg/kg/day
TD50 (mouse, strain CD-1 HaM/ICR, females, in feed, site: liver, lesion: several types, types named in the paper, dosed 68 weeks, study length 94 weeks): 552 mg/kg/day
TD50 (mouse, strain CD-1 HaM/ICR, females, in feed, site: lung, lesion: several types, types named in the paper, dosed 68 weeks, study length 94 weeks): 1290 mg/kg/day (inactive)
TD50 (mouse, strain CD-1 HaM/ICR, males, in feed, site: all sites, lesion: all vascular tumors, dosed 68 weeks, study length 94 weeks): 723 mg/kg/day
TD50 (mouse, strain CD-1 HaM/ICR, males, in feed, site: any site (literature study), lesion: several types, types named in the paper, dosed 68 weeks, study length 94 weeks): 321 mg/kg/day
TD50 (mouse, strain CD-1 HaM/ICR, males, in feed, site: liver, lesion: several types, types named in the paper, dosed 68 weeks, study length 94 weeks): 805 mg/kg/day
TD50 (mouse, strain CD-1 HaM/ICR, males, in feed, site: lung, lesion: several types, types named in the paper, dosed 68 weeks, study length 94 weeks): 765 mg/kg/day (inactive)
TD50 (rat, strain Charles River CD (Sprague-Dawley), males, in feed, site: any site (literature study), lesion: several types, types named in the paper, dosed 77 weeks, study length 103 weeks): 67.2 mg/kg/day
TD50 (rat, strain Charles River CD (Sprague-Dawley), males, in feed, site: liver, lesion: several types, types named in the paper, dosed 77 weeks, study length 103 weeks): 3260 mg/kg/day (inactive)
TD50 (rat, strain Charles River CD (Sprague-Dawley), males, in feed, site: subcutaneous tissue, lesion: several types, types named in the paper, dosed 77 weeks, study length 103 weeks): 152 mg/kg/day

Cn1cc(OCC(O)CNC(C)(C)C)c2ccccc2c1=O (configuration not stated)
carcinogen call (mouse, strain Charles River CD1, females, by gavage, site: any site (literature study), lesion: several types, types named in the paper, dosed 80 weeks, study length 80 weeks): negative (inactive)
carcinogen call (mouse, strain Charles River CD1, females, by gavage, site: liver, lesion: one or several types, types not named, dosed 80 weeks, study length 80 weeks): negative (inactive)
carcinogen call (mouse, strain Charles River CD1, females, by gavage, site: lung, lesion: adenocarcinoma, dosed 80 weeks, study length 80 weeks): negative (inactive)
TD50 (mouse, strain Charles River CD1, females, by gavage, site: lung, lesion: adenoma, dosed 80 weeks, study length 80 weeks): 843 mg/kg/day (inactive)
TD50 (mouse, strain Charles River CD1, males, by gavage, site: any site (literature study), lesion: several types, types named in the paper, dosed 80 weeks, study length 80 weeks): 256 mg/kg/day (inactive)
TD50 (mouse, strain Charles River CD1, males, by gavage, site: liver, lesion: hepatocellular adenoma, dosed 80 weeks, study length 80 weeks): 131 mg/kg/day (inactive)
carcinogen call (mouse, strain Charles River CD1, males, by gavage, site: liver, lesion: hepatocellular carcinoma, dosed 80 weeks, study length 80 weeks): negative (inactive)
TD50 (mouse, strain Charles River CD1, males, by gavage, site: lung, lesion: adenocarcinoma, dosed 80 weeks, study length 80 weeks): 99.2 mg/kg/day (inactive)
TD50 (mouse, strain Charles River CD1, males, by gavage, site: lung, lesion: adenoma, dosed 80 weeks, study length 80 weeks): 7200 mg/kg/day (inactive)
TD50 (rat, strain Charles River CD (Sprague-Dawley), females, by gavage, site: any site (literature study), lesion: several types, types named in the paper, dosed 104 weeks, study length 104 weeks): 40 mg/kg/day (inactive)
carcinogen call (rat, strain Charles River CD (Sprague-Dawley), females, by gavage, site: liver, lesion: hepatocellular adenoma, dosed 104 weeks, study length 104 weeks): negative (inactive)
TD50 (rat, strain Charles River CD (Sprague-Dawley), males, by gavage, site: any site (literature study), lesion: several types, types named in the paper, dosed 104 weeks, study length 104 weeks): 128 mg/kg/day (inactive)
TD50 (rat, strain Charles River CD (Sprague-Dawley), males, by gavage, site: liver, lesion: hepatocellular adenoma, dosed 104 weeks, study length 104 weeks): 384 mg/kg/day (inactive)
carcinogen call (rat, strain Charles River CD (Sprague-Dawley), males, by gavage, site: liver, lesion: hepatocellular carcinoma, dosed 104 weeks, study length 104 weeks): negative (inactive)

CNc1ncnc2nc[nH]c12
carcinogen call (mouse, strain Swiss CD-1, females, in drinking water, site: liver, lesion: hepatocellular tumor, dosed 26 weeks, study length 104 weeks): negative (inactive)
carcinogen call (mouse, strain Swiss CD-1, females, in drinking water, site: lung, lesion: one or several types, types not named, dosed 26 weeks, study length 104 weeks): negative (inactive)
carcinogen call (mouse, strain Swiss CD-1, males, in drinking water, site: liver, lesion: hepatocellular tumor, dosed 26 weeks, study length 106 weeks): negative (inactive)
carcinogen call (mouse, strain Swiss CD-1, males, in drinking water, site: lung, lesion: one or several types, types not named, dosed 26 weeks, study length 106 weeks): negative (inactive)

O=C(O)Cc1c[nH]c2ccccc12
carcinogen call (mouse, strain B6AKF1, females, oral dosing, site: any site (literature study), lesion: several types, types named in the paper, dosed 76 weeks, study length 76 weeks): negative (inactive)
carcinogen call (mouse, strain B6AKF1, females, oral dosing, site: liver, lesion: hepatoma, dosed 76 weeks, study length 76 weeks): negative (inactive)
carcinogen call (mouse, strain B6AKF1, females, oral dosing, site: lung, lesion: adenoma, dosed 76 weeks, study length 76 weeks): negative (inactive)
carcinogen call (mouse, strain B6AKF1, males, oral dosing, site: any site (literature study), lesion: several types, types named in the paper, dosed 76 weeks, study length 76 weeks): negative (inactive)
carcinogen call (mouse, strain B6AKF1, males, oral dosing, site: liver, lesion: hepatoma, dosed 76 weeks, study length 76 weeks): negative (inactive)
carcinogen call (mouse, strain B6AKF1, males, oral dosing, site: lung, lesion: adenoma, dosed 76 weeks, study length 76 weeks): negative (inactive)
TD50 (mouse, strain B6C3F1, females, oral dosing, site: any site (literature study), lesion: several types, types named in the paper, dosed 76 weeks, study length 76 weeks): 538 mg/kg/day (inactive)
carcinogen call (mouse, strain B6C3F1, females, oral dosing, site: liver, lesion: hepatoma, dosed 76 weeks, study length 76 weeks): negative (inactive)
TD50 (mouse, strain B6C3F1, females, oral dosing, site: lung, lesion: adenoma, dosed 76 weeks, study length 76 weeks): 538 mg/kg/day (inactive)
TD50 (mouse, strain B6C3F1, males, oral dosing, site: any site (literature study), lesion: several types, types named in the paper, dosed 76 weeks, study length 76 weeks): 40.3 mg/kg/day (inactive)
TD50 (mouse, strain B6C3F1, males, oral dosing, site: liver, lesion: hepatoma, dosed 76 weeks, study length 76 weeks): 113 mg/kg/day (inactive)
TD50 (mouse, strain B6C3F1, males, oral dosing, site: lung, lesion: adenoma, dosed 76 weeks, study length 76 weeks): 500 mg/kg/day (inactive)

Source: PubChem BioAssay AID1745844 (Carcinogenic Potency Database (CPDB), 2022)
